Laboratory results: paper PMC1810525, “Antagonism of the prostaglandin D2 receptor CRTH2 attenuates asthma pathology in mouse eosinophilic airway inflammation” (Respiratory Research, 2007)

What was measured:
[1] = tested on: DP; conditions: cited from earlier work
[2] = molecular target: T1, ChemR23 (Homo sapiens, UniProt Q99788); assay: Profiling panel, functional InsP ChemR23; format: cell-based; conditions: 10 μM
T1 sequence (Q99788 1-373): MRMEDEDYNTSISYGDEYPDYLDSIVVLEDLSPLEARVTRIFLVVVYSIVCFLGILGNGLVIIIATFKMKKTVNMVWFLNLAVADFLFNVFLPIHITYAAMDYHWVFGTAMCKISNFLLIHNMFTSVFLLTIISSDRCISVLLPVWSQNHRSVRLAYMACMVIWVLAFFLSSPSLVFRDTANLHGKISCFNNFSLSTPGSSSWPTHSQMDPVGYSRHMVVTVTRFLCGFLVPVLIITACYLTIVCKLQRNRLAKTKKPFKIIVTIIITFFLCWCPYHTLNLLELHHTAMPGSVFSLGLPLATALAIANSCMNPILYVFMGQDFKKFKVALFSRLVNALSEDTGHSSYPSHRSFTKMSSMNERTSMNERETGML

[3] = molecular target: iNOS (Homo sapiens, UniProt P35228); assay: Profiling panel, enzymatic assay iNOS; format: biochemical; conditions: 10 μM
Procedure: (§2) All assays were performed using recombinant human receptors and enzymes, and included the appropriate controls for assay validation. Enzymatic and binding assays, except for muscarinic binding, were performed by CEREP in vitro pharmacology profiling services. […] For stimulation of C3a, C5a, and ChemR23 receptors in InsP assays the following agonists were used: human recombinant C3a (C3a receptor), human recombinant C5a (C5a receptor), and the nonapeptide Chemerin (ChemR23).

[4] = molecular target: Muscarinic (M2-selective) (Sus scrofa, UniProt P06199); conditions: 10 μM, binding, porcine heart membranes
Muscarinic (M2-selective), sequence (P06199 whole entry): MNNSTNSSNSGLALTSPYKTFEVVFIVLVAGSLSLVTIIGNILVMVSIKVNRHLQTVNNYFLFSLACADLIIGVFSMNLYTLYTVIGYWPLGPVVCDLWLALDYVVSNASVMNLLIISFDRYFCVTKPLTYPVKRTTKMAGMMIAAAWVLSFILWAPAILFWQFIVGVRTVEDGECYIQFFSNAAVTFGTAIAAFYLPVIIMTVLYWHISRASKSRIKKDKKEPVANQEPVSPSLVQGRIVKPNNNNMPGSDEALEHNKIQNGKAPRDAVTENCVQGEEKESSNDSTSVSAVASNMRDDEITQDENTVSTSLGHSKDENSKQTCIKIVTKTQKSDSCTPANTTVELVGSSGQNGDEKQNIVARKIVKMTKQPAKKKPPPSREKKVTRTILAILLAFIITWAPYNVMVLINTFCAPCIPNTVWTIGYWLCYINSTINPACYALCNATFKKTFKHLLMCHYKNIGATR
Procedure: (§1) TM30089 was tested at a final concentration of 10 μM in either binding or functional assays on several 7TM receptors, and in enzymatic assays on selected enzymes including those involved in arachidonic acid metabolism. All assays were performed using recombinant human receptors and enzymes, and included the appropriate controls for assay validation. Enzymatic and binding assays, except for muscarinic binding, were performed by CEREP in vitro pharmacology profiling services. Full description of methods and references is available on the CEREP Web site. […] Functional assays were performed using recombinant human receptors and enzymes, and included the appropriate controls for C3a, C5a, ChemR23 receptors by determining the inhibitory potency of TM30089 in InsP assays essentially as described above. For stimulation of C3a, C5a, and ChemR23 receptors in InsP assays the following agonists were used: human recombinant C3a (C3a receptor), human recombinant C5a (C5a receptor), and the nonapeptide Chemerin (ChemR23).

[5] = tested on: Muscarinic (non-selective); conditions: 10 μM, binding, mouse brain homogenate
Procedure: as §1

[6] = tested on: Phospholipase A2; conditions: 10 μM, enzymatic
Procedure: as §1

[7] = molecular target: T2, C5a (Homo sapiens, UniProt P21730); assay: Profiling panel, C5a receptor; conditions: 10 μM, assay type B (binding) per table
T2 sequence (P21730 1-350): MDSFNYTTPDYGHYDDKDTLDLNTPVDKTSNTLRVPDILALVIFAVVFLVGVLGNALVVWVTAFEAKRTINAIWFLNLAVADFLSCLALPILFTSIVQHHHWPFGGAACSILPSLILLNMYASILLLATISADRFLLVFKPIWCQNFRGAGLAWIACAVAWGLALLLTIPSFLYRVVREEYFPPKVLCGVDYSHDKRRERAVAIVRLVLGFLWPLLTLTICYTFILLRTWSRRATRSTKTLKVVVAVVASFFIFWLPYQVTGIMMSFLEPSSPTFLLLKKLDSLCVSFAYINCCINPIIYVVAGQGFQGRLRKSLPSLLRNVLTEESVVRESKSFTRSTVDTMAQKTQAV
Procedure: as §2

[8] = molecular target: COX1 (Homo sapiens, UniProt P23219); assay: Profiling panel, enzymatic assay COX1; format: biochemical; conditions: 10 μM
COX1, sequence (P23219 24-599): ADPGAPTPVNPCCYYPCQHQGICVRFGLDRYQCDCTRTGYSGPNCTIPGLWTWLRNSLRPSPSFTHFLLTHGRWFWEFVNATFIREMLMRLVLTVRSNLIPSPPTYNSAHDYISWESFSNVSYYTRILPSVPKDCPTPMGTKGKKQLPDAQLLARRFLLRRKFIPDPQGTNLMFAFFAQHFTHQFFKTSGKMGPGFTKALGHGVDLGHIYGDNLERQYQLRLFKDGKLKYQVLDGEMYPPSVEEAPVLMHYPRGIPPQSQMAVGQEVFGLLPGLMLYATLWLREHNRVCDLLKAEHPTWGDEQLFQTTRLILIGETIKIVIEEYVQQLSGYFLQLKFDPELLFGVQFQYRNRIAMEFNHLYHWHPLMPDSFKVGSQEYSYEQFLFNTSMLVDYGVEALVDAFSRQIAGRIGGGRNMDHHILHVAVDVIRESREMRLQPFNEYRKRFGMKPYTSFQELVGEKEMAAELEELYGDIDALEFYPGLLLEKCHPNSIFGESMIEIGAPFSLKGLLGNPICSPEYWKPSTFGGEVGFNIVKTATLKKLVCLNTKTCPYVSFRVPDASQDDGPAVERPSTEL
Procedure: as §2

[9] = molecular target: T3, COX2 (Homo sapiens, UniProt P35354); assay: Profiling panel, enzymatic assay COX2; format: biochemical; conditions: 10 μM
T3 sequence (P35354 18-604): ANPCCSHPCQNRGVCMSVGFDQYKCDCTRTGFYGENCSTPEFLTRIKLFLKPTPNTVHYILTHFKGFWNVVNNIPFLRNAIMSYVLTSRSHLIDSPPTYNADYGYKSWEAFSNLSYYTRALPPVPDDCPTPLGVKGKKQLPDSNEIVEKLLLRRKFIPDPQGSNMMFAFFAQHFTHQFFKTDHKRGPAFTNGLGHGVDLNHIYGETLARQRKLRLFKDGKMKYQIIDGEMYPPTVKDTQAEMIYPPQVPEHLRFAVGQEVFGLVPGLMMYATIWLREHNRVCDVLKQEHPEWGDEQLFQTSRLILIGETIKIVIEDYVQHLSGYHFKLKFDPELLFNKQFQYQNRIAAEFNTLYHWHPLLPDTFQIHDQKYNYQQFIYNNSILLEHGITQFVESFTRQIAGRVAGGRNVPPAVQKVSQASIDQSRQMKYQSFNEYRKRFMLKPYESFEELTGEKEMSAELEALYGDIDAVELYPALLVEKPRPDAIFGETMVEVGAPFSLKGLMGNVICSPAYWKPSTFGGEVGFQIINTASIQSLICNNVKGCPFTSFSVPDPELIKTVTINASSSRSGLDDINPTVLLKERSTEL
Procedure: as §2

[10] = molecular target: T4, Glucocorticoid (Homo sapiens, UniProt P04150); assay: Profiling panel, radioligand binding Glucocorticoid; conditions: 10 μM
T4 sequence (P04150 1-777): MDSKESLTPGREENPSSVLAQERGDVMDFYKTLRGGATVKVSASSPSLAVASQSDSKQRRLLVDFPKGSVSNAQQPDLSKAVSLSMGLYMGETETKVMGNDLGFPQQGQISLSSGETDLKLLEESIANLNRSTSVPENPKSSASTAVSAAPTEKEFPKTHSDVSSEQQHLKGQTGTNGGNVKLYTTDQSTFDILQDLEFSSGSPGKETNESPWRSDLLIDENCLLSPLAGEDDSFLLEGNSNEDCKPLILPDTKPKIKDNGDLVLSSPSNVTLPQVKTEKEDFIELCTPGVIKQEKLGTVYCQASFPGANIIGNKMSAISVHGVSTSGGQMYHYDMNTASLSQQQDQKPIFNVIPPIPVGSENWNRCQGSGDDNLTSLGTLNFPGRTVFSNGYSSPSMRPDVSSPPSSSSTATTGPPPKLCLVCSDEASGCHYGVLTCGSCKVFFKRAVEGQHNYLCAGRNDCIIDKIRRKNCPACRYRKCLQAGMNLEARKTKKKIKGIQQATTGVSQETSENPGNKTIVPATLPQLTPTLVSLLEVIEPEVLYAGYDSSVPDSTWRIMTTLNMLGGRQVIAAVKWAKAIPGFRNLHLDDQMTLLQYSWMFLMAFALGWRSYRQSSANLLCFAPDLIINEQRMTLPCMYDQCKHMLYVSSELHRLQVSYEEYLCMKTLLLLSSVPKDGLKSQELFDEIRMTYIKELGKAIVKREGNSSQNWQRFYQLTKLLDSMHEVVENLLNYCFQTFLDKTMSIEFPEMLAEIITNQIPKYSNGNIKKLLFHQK
Procedure: as §2

[11] = molecular target: mCRTH2; design: method as in PMID 15563582; conditions: obtained by others in the same expression system; read-out: reported Ki value mCRTH2; cited from earlier work

CN(C1CCc2c(c3ccccc3n2CC(=O)O)C1)S(=O)(=O)c1ccc(F)cc1 (centres unmarked) [TM30089]
preference for CRTH2 over DP [1]: > 1000 fold
% of control ChemR23 [2]: 96.6 ± 1.6%
% of control iNOS [3]: 102.3 ± 3.6%
% of control Muscarinic (M2-selective) [4]: 97.5 ± 1.9%
% of control Muscarinic (non-selective) [5]: 106.7 ± 8.5%
% of control Phospholipase A2 [6]: 101.5 ± 1.0%
% of control C5a [7]: 108.7 ± 6.3%
% of control COX1 [8]: 109.6 ± 3.6%
% of control COX2 [9]: 123.8 ± 13.4%
% of control Glucocorticoid [10]: 98.9 ± 11.3%

O=C(O)CCn1c2c(c3ccccc31)C[C@H](NS(=O)(=O)c1ccc(F)cc1)CC2 [ramatroban, reference compound]
Ki [11]: 28 nM
